Data as given in patent publication US20040152715A1, “Cycloalkylene amide compounds as NR2B receptor antagonists” (priority 2002, published 2004).

Assays:
[1] = target: T1, NR2B receptor (Rattus norvegicus, UniProt P35439+Q00960); test: NR2B Binding Assay; details: statement in words in Background Art on prior-art compounds; test not named
T1 construct: Membranes were prepared by homogenization of forebrain of male CD rats; from tissue; host or cells: rat forebrain P2 membranes
Description: The activity of the cycloalkylene amide compounds of the present invention, as NR2B antagonists, is determined by their ability to inhibit the binding of NR2B subunit at its receptor sites employing radioactive ligands.
The NR2B antagonist activity of the cycloalkylene amide compounds is evaluated by using the standard assay procedure described in, for example, J. Pharmacol., 331, pp117-126, 1997. This method essentially involves determining the concentration of the individual compound required to reduce the amount of radiolabelled NR2B ligands by 50% at their receptor sites, thereby affording characteristic IC50 values for each compound tested. More specifically, the assay is carried out as follows.
Membranes were prepared by homogenization of forebrain of male CD rats weighing between 170˜190 g by using glass-Teflon homogenizer in 0.32 M sucrose at 4° C. The crude nuclear pellet was removed by centrifugation at 1000×g for 10 min, and the supernatant centrifuged at 17000×g for 25 min. […]
For the saturation assay, receptor saturation was determined by incubating [^3H]-CP-98,113 and 50 μg protein of P2 membrane for 60 minutes at room temperature in a final 100 μl of incubation buffer (50 mM Tris HCl, pH7.4). Total and non-specific bindings (in the presence of 10 μM of unlabeled CP-98,113) were determined in a range of [^3H]-CP-98113 concentrations (0.625 nM to 60 nM). […]
For the competition assay, test compounds were incubated in duplicate with 5 nM [^3H]-CP-98,113 and 50 μg protein of P2 membrane for 60 minutes at room temperature in a final 100 μl of 50 mM Tris HCl buffer (pH7.4). Nonspecific binding was determined by 10 μM of unlabeled CP-98,113 (25 μl). […]
All incubations were terminated by rapid vacuum filtration over 0.2% polyethyleneimine soaked Whatman GF/B glass fibre filter paper using a SKATRON cell harvester followed by three washes with ice-cold filtration buffer (5 mM Tris HCl, pH 7.4.). Receptor-bound radioactivity was quantified by liquid scintillation counting using Packard LS counter. […]

[2] = QT prolongation; details: statement in words in Background Art; attributed to HERG inhibition
[3] = target: T2, human NR1b/2B receptor (Homo sapiens, UniProt Q13224); test: Human NR2B Cell Functional Assay; format: cell-based; details: statement in words in Background Art; test not named
T2 construct: expressed in transfected cells
Description: Human NR2B Cell Functional Assay
HEK293 cells stably expressing human NR1b/2B receptor were used for cell functional assay. Cells were grown in 75-cm^2 culture flasks, using Dulbecco's modified Eagle's medium (DMEM, high glucose) supplemented with 10% fetal bovine, 52 μg/ml Zeocin, 530 μg/ml Geneticin, 100 units/ml penicillin and 100 μg/ml streptomycin. Cells were maintained in a humidified atmosphere in 5% CO2 at 37° C., and 50-60% confluent cells were harvested by 0.05% trypsin containing 0.53 mM EDTA. The day before the experiment, expression of NR1b/2B receptor was induced by 5 μM ponasteron A in DMEM (40 ml) in the presence of 400 μM ketamine to prevent excitotoxicity. […]
Cells were washed with 10 ml of Ca^2+-free Krebs-Ringer Hepes buffer (KRH) containing 400 μM ketamine, and the loading of 5 μM fura-2 acetoxymethyl ester was made for 2 hrs at room temperature in the presence of 400 μM ketamine in Ca^2+-free KRH (10 ml). […] Fura-2 fluorescence (excitation wavelengths: 340 nm and 380 nm; emission wavelengths 510-520 nm) was monitored with a fluorescence imaging system, FDSS6000. The Δ fluorescence ratio F340/F380 (i.e., the fluorescence ratio immediately post-agonist—the basal fluorescence ratio; calculated as AUC) was used for evaluation of drug effects on agonists-induced changes in intracellular Ca^2+. The basal fluorescence ratio was determined in the presence of 10 μM MK-801.

T1 sequence (Q00960 27-1482, other chains not shown): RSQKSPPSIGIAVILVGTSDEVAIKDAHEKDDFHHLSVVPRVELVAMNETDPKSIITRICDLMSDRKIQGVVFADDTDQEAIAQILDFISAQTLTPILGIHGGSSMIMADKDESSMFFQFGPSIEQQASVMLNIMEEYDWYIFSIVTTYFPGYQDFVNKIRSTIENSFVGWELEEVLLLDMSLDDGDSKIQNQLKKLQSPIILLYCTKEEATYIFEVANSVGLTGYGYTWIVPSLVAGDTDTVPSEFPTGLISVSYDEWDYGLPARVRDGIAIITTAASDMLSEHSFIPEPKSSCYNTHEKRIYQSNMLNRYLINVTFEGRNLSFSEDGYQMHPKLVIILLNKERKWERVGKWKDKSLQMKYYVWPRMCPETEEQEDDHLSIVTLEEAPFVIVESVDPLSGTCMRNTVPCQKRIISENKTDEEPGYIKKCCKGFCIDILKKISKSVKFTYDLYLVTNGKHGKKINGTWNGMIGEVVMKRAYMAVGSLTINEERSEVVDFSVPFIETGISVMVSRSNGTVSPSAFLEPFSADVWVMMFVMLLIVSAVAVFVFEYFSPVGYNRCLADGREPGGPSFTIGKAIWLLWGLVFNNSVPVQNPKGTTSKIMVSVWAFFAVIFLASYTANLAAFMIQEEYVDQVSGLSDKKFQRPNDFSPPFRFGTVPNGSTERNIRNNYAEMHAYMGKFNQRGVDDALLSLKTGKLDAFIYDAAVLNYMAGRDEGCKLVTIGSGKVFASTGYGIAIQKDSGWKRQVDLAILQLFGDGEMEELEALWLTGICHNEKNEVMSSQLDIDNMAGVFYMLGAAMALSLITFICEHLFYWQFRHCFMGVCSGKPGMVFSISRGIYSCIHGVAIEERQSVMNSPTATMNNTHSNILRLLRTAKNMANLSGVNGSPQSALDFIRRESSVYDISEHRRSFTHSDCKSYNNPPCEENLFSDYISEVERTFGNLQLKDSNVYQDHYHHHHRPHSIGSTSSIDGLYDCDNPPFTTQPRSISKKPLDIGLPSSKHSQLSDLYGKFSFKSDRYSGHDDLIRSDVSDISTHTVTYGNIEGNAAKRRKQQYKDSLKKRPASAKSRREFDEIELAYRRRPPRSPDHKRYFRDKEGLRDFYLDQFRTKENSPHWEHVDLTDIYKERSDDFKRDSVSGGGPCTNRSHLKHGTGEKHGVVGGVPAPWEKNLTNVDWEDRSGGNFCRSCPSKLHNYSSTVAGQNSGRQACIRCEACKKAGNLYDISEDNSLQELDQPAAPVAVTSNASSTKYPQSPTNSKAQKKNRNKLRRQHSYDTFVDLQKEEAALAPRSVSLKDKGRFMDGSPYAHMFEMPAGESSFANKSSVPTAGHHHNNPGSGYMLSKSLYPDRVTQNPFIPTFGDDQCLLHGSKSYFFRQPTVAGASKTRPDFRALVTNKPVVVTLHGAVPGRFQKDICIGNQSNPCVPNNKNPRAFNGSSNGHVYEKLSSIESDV
T2 sequence (Q13224 27-1484): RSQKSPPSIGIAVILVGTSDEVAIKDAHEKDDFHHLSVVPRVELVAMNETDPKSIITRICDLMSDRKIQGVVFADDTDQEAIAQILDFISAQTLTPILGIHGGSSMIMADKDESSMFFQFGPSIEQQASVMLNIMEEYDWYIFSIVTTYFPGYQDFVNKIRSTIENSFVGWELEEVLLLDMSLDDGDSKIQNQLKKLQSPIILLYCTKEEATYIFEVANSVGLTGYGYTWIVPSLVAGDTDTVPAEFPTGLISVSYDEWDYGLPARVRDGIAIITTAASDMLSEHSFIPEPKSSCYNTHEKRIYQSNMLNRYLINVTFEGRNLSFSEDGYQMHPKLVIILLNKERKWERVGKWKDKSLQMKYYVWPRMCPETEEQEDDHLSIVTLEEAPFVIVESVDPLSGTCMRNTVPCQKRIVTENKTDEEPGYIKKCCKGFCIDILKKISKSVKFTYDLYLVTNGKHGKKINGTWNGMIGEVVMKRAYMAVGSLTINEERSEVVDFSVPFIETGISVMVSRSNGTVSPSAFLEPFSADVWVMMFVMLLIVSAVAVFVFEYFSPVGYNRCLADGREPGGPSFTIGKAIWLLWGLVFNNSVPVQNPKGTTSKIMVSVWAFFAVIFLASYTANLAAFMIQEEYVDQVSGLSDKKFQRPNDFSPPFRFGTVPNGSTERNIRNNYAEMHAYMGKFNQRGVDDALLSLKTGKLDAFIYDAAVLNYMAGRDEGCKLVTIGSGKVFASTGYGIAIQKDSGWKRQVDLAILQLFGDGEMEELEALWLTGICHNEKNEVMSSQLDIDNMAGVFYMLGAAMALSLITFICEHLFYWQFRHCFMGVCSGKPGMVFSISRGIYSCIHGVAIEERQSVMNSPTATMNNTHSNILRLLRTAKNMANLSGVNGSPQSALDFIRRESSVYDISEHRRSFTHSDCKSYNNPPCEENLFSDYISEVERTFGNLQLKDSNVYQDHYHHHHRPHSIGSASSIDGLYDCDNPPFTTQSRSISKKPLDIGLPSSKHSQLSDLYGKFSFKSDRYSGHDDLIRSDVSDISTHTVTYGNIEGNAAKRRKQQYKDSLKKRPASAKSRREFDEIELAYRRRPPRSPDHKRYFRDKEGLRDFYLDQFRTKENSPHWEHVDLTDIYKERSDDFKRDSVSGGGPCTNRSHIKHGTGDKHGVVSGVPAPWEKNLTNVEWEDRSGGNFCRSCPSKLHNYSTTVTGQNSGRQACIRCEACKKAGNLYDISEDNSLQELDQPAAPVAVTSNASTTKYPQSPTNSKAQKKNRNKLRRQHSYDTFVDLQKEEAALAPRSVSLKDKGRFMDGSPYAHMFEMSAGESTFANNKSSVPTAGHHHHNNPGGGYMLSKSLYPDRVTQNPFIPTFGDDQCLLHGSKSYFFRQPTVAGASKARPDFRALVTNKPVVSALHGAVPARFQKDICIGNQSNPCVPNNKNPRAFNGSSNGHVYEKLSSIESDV

With `O=C(CCc1ccc(F)cc1)N[C@H]1CC[C@H](c2ccc(O)cn2)CC1` [Example 12, 3-(4-fluorophenyl)-N-[trans-4-(5-hydroxypyridin-2-yl)cyclohexyl]propanamide] as the compound, how does the melting point read?
Its melting point is 195.4 °C.

With `O=C(CCc1ccc(Cl)cc1Cl)N[C@H]1CC[C@](O)(c2ccc(O)cn2)CC1` [Example 7, 3-(2,4-dichlorophenyl)-N-[cis-4-hydroxy-4-(5-hydroxypyridin-2-yl)cyclohexyl]propanamide] as the compound, how does the melting point read?
The melting point was 198.1 °C.

With `CN(CCCc1ccc(F)cc1)[C@H]1CC[C@H](c2ccc3[nH]c(=O)oc3c2)CC1` [Compound E] as the compound, how does the “binding affinity (NR2B receptor)” value [1] read?
The value was “potent”.

What about the QT prolongation [2] of the same compound?
Its QT prolongation is “shows QT prolongation”.

With `O=C(CCc1ccccc1)N[C@H]1CO[C@H](c2ccc(O)cc2)OC1` [B] as the compound, how does the “NR2B receptor antagonist activity” value [3] read?
The value was “insufficient”.

What about the “binding affinity (NR2B receptor)” value [1] of the same compound?
The value was “insufficient”.

For `O=C(CCc1ccccc1)N[C@H]1CC[C@H](c2ccc(O)cc2)CC1` [Compound A], which “binding affinity (NR2B receptor)” value [1] is on record?
Its value is “insufficient”.
